Results taken from patent US20160355530A1, “HEPATITIS C INHIBITORS AND USES THEREOF” (AbbVie Inc., priority 2010, published 2016).
Like-named read-outs stand apart in the source and are kept apart here.

How the values were obtained:
[1] = system: chimeric replicon with genotype 2b NS5B; assay: microbe, parasite or virus in culture; type: cell-based, HCV genotype 2b; conditions: Hepatitis C virus, read-out: 2b chimera 5% FBS EC50
[2] = system: chimeric replicon with 2a-J6CF-derived NS5B; assay: microbe, parasite or virus in culture; type: cell-based, HCV genotype 2a; conditions: Hepatitis C virus, read-out: 2a chimera 5% FBS EC50
[3] = target: T1, HCV NS5B polymerase 1b BK strain (Hepatitis C virus genotype 1b, UniProt P26663); assay: HCV NS5B polymerase enzymatic inhibition assay, strain 1b BK; type: biochemical; conditions: enzyme, strain 1b BK; read-out: HCV Polymerase Strain 1b BK IC50
T1 construct: six-histidine tag; made in house; host or cells: E. coli
How it was run: (§1)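 Incorporation of [3H]UTP (0.284 μM), alongside 20 μM each CTP and ATP, into RNA copied from a 5 nM 2.1 kb genotype 1b negative-strand template was measured after 3 h at 30° C using purified His-tagged NS5B truncated at residue 570. Product was spermine-precipitated, filtered and scintillation-counted; nonlinear regression gave IC50.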

[4] = system: chimeric replicon with genotype 3a NS5B; assay: microbe, parasite or virus in culture; type: cell-based, HCV genotype 3a; conditions: Hepatitis C virus, read-out: 3a chimera 5% FBS EC50
[5] = system: HCV 1b-BB7 subgenomic replicon; assay: microbe, parasite or virus in culture; type: cell-based, HCV genotype 1b; conditions: Hepatitis C virus, stable replicon
[6] = system: HCV NS5B polymerase 1a-H77-C316Y; assay: biochemical; design: species or system HCV genotype 1a; conditions: ratio of enzyme IC50s, 1a H77-C316Y / 1a H77
How it was run: as §1

[7] = target: T2, HCV NS5B polymerase 1a-H77 (Hepatitis C virus genotype 1a, UniProt P27958); assay: biochemical; design: species or system HCV genotype 1a; conditions: enzyme, strain 1a H77; read-out: HCV Polymerase Strain 1a H77 IC50
T2 construct: six-histidine tag; made in house; host or cells: E. coli
How it was run: as §1

[8] = target: T3, HCV NS5B polymerase 1a-H77-C316Y (Hepatitis C virus genotype 1a, UniProt P27958, C2736Y); assay: biochemical; design: species or system HCV genotype 1a
T3 construct: six-histidine tag; made in house; host or cells: E. coli
How it was run: as §1

[9] = system: HCV 1a-H77 subgenomic replicon; assay: microbe, parasite or virus in culture; type: cell-based, HCV genotype 1a; conditions: Hepatitis C virus, stable replicon
[10] = system: chimeric replicon with genotype 4a NS5B; assay: microbe, parasite or virus in culture; type: cell-based, HCV genotype 4a; conditions: Hepatitis C virus, read-out: 4a chimera 5% FBS EC50
[11] = strain 1b BB7, 5% FBS + 40% human plasma, read-out: 1b BB7 5% FBS + 40% Human Plasma EC50
[12] = strain 1b BB7, 5% FBS, no human plasma, read-out: 1b BB7 5% FBS EC50
[13] = strain 1b BB7, 5% FBS, read-out: 1b BB7 5% FBS EC50
[14] = 5% FBS, absence of human plasma, read-out: Stable Replicon 1a H77 5% FBS EC50
[15] = strain 1a H77, 5% FBS + 40% human plasma, read-out: 1a H77 5% FBS + 40% Human Plasma EC50
[16] = strain 1a H77, 5% FBS, no human plasma, read-out: 1a H77 5% FBS EC50
[17] = strain 1a H77, 5% FBS, read-out: 1a H77 5% FBS EC50

T3 sequence (P27958 2421-2990 C2736Y): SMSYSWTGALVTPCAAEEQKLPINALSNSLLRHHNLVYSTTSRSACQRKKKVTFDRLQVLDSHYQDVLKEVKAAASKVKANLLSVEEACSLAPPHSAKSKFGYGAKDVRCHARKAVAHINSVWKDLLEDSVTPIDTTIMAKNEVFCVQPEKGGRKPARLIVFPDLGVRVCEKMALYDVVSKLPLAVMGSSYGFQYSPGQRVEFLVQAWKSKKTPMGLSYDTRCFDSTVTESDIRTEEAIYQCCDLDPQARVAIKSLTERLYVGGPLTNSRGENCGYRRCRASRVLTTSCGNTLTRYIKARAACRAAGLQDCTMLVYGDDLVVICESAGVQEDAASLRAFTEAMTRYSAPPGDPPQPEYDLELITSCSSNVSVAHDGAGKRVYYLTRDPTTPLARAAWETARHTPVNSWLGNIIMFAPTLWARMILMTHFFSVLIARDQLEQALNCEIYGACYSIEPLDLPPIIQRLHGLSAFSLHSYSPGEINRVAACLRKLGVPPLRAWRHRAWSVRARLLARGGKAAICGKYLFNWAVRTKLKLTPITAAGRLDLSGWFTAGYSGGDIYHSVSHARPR
T2 sequence (P27958 2421-2990): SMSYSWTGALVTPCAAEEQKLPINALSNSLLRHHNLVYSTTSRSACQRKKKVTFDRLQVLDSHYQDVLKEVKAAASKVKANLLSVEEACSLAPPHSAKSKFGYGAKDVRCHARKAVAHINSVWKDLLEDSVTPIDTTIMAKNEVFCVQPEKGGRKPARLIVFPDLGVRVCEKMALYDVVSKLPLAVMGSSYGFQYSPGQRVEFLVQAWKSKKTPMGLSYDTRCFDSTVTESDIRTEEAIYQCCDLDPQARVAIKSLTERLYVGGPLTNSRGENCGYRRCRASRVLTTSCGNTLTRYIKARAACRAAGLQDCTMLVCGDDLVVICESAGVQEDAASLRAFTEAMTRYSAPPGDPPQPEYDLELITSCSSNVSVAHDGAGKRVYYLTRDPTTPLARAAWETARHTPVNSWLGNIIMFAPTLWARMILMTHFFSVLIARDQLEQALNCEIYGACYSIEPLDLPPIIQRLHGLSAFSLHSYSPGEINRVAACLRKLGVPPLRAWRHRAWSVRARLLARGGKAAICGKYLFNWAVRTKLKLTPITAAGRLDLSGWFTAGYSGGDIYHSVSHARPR
T1 sequence (P26663 2420-2989): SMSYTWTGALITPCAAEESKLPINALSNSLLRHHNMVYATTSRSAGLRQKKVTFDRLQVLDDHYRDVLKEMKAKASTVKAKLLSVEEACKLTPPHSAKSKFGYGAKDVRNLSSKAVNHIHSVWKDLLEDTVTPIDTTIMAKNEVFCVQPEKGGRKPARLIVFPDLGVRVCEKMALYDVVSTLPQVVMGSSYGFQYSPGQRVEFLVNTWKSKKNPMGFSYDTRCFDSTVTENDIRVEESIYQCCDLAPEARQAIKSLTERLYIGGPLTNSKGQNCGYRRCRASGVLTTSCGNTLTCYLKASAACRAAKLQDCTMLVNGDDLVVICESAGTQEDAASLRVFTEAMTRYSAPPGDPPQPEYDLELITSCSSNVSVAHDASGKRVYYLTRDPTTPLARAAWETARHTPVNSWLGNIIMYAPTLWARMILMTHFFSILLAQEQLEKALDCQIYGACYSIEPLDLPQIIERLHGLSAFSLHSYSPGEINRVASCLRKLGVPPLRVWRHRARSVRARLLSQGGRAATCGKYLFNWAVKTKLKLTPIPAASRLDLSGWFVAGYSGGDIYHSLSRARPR

CCCCCN(c1cc2oc(-c3ccc(F)cc3)c(-c3ncc[nH]3)c2cc1C1CC1)S(C)(=O)=O [Example 70, N-[5-cyclopropyl-2-(4-fluorophenyl)-3-(1H-imidazol-2-yl)-1-benzofuran-6-yl]-N-pentylmethanesulfonamide]
EC50 [1]: 0.234 µM | EC50 [2]: 0.173 µM | IC50 [3]: 0.024 µM | EC50 [4]: 0.0268 µM | EC50 [5, 11]: 0.298 µM | EC50 [5, 12]: 0.0356 µM | EC50 [5, 13]: 0.0356 µM | C316Y/1a Fold Resistance [6]: 8 fold | IC50 [7]: 0.0085 µM | IC50 [8]: 0.069 µM | EC50 [9, 14]: 0.0418 µM | EC50 [9, 15]: 0.641 µM | EC50 [9, 16]: 0.0418 µM | EC50 [9, 17]: 0.0418 µM | EC50 [10]: 0.285 µM

CCCCCCN(c1cc2oc(-c3ccc(F)cc3)c(-c3ncc[nH]3)c2cc1C1CC1)S(C)(=O)=O [Example 71, N-[5-cyclopropyl-2-(4-fluorophenyl)-3-(1H-imidazol-2-yl)-1-benzofuran-6-yl]-N-hexylmethanesulfonamide]
EC50 [1]: 0.377 µM | EC50 [2]: 0.409 µM | IC50 [3]: 0.028 µM | EC50 [4]: 0.0725 µM | EC50 [5, 11]: 1.07 µM | EC50 [5, 12]: 0.039 µM | EC50 [5, 13]: 0.039 µM | C316Y/1a Fold Resistance [6]: 15 fold | IC50 [7]: 0.0089 µM | IC50 [8]: 0.136 µM | EC50 [9, 14]: 0.0654 µM | EC50 [9, 15]: 2.29 µM | EC50 [9, 16]: 0.0654 µM | EC50 [9, 17]: 0.0654 µM | EC50 [10]: 0.596 µM

CC(=O)CCCN(c1cc2oc(-c3ccc(F)cc3)c(-c3ncc[nH]3)c2cc1C1CC1)S(C)(=O)=O [Example 73, N-[5-cyclopropyl-2-(4-fluorophenyl)-3-(1H-imidazol-2-yl)-1-benzofuran-6-yl]-N-(4-oxopentyl)methanesulfonamide]
EC50 [1]: 0.0219 µM | EC50 [2]: 0.027 µM | IC50 [3]: 0.015 µM | EC50 [4]: 0.0029 µM | EC50 [5, 11]: 0.055 µM | EC50 [5, 12]: 0.0049 µM | EC50 [5, 13]: 0.0049 µM | C316Y/1a Fold Resistance [6]: 15 fold | IC50 [7]: 0.0035 µM | IC50 [8]: 0.053 µM | EC50 [9, 14]: 0.0079 µM | EC50 [9, 15]: 0.072 µM | EC50 [9, 16]: 0.0079 µM | EC50 [9, 17]: 0.0079 µM | EC50 [10]: 0.0425 µM

CSCCN(c1cc2oc(-c3ccc(F)cc3)c(-c3ncc[nH]3)c2cc1C1CC1)S(C)(=O)=O [Example 74, N-[5-cyclopropyl-2-(4-fluorophenyl)-3-(1H-imidazol-2-yl)-1-benzofuran-6-yl]-N-[2-(methylthio)ethyl]methanesulfonamide]
EC50 [1]: 0.0578 µM | EC50 [2]: 0.064 µM | IC50 [3]: 0.013 µM | EC50 [4]: 0.0045 µM | EC50 [5, 11]: 0.127 µM | EC50 [5, 12]: 0.0065 µM | EC50 [5, 13]: 0.0064 µM | C316Y/1a Fold Resistance [6]: 36 fold | IC50 [7]: 0.003 µM | IC50 [8]: 0.107 µM | EC50 [9, 14]: 0.0136 µM | EC50 [9, 15]: 0.254 µM | EC50 [9, 16]: 0.0136 µM | EC50 [9, 17]: 0.0136 µM | EC50 [10]: 0.0865 µM

CC(=O)CCCCN(c1cc2oc(-c3ccc(F)cc3)c(-c3ncc[nH]3)c2cc1C1CC1)S(C)(=O)=O [Example 77, N-[5-cyclopropyl-2-(4-fluorophenyl)-3-(1H-imidazol-2-yl)-1-benzofuran-6-yl]-N-(5-oxohexyl)methanesulfonamide]
EC50 [1]: 0.0268 µM | EC50 [2]: 0.0325 µM | IC50 [3]: 0.01 µM | EC50 [4]: 0.0049 µM | EC50 [5, 11]: 0.047 µM | EC50 [5, 12]: 0.0057 µM | EC50 [5, 13]: 0.0057 µM | C316Y/1a Fold Resistance [6]: 10 fold | IC50 [7]: 0.005 µM | IC50 [8]: 0.049 µM | EC50 [9, 14]: 0.006 µM | EC50 [9, 15]: 0.066 µM | EC50 [9, 16]: 0.006 µM | EC50 [9, 17]: 0.006 µM | EC50 [10]: 0.0427 µM

CS(=O)(=O)N(CCCS(=O)(=O)N1CCOCC1)c1cc2oc(-c3ccc(F)cc3)c(-c3ncc[nH]3)c2cc1C1CC1 [Example 79, N-[5-cyclopropyl-2-(4-fluorophenyl)-3-(1H-imidazol-2-yl)-1-benzofuran-6-yl]-N-[3-(morpholin-4-ylsulfonyl)propyl]methanesulfonamide]
EC50 [1]: 0.0993 µM | EC50 [2]: 0.0906 µM | IC50 [3]: 0.02 µM | EC50 [4]: 0.0116 µM | EC50 [5, 11]: 0.062 µM | EC50 [5, 12]: 0.0069 µM | EC50 [5, 13]: 0.0069 µM | C316Y/1a Fold Resistance [6]: 26 fold | IC50 [7]: 0.0055 µM | IC50 [8]: 0.141 µM | EC50 [9, 14]: 0.0147 µM | EC50 [9, 15]: 0.117 µM | EC50 [9, 16]: 0.0147 µM | EC50 [9, 17]: 0.0147 µM | EC50 [10]: 0.0728 µM

CS(=O)(=O)N(CCCF)c1cc2oc(-c3ccc(F)cc3)c(-c3ncc[nH]3)c2cc1C1CC1 [Example 85, N-[5-cyclopropyl-2-(4-fluorophenyl)-3-(1H-imidazol-2-yl)-1-benzofuran-6-yl]-N-(3-fluoropropyl)methanesulfonamide]
EC50 [1]: 0.131 µM | EC50 [2]: 0.0662 µM | IC50 [3]: 0.018 µM | EC50 [4]: 0.0064 µM | EC50 [5, 11]: 0.095 µM | EC50 [5, 12]: 0.0098 µM | EC50 [5, 13]: 0.0098 µM | C316Y/1a Fold Resistance [6]: 20 fold | IC50 [7]: 0.0045 µM | IC50 [8]: 0.088 µM | EC50 [9, 14]: 0.0218 µM | EC50 [9, 15]: 0.162 µM | EC50 [9, 16]: 0.0218 µM | EC50 [9, 17]: 0.0218 µM | EC50 [10]: 0.0738 µM

CS(=O)(=O)NCCCN(c1cc2oc(-c3ccc(F)cc3)c(-c3ncc[nH]3)c2cc1C1CC1)S(C)(=O)=O [Example 95, N-[5-cyclopropyl-2-(4-fluorophenyl)-3-(1H-imidazol-2-yl)-1-benzofuran-6-yl]-N-{3-[(methylsulfonyl)amino]propyl}methanesulfonamide]
EC50 [1]: 0.0808 µM | EC50 [2]: 0.0331 µM | IC50 [3]: 0.013 µM | EC50 [4]: 0.0057 µM | EC50 [5, 11]: 0.0761 µM | EC50 [5, 12]: 0.0048 µM | EC50 [5, 13]: 0.0048 µM | C316Y/1a Fold Resistance [6]: 19 fold | IC50 [7]: 0.0045 µM | IC50 [8]: 0.085 µM | EC50 [9, 14]: 0.0112 µM | EC50 [9, 15]: 0.121 µM | EC50 [9, 16]: 0.0112 µM | EC50 [9, 17]: 0.0112 µM | EC50 [10]: 0.0461 µM

CN(C)C(=O)CCCN(c1cc2oc(-c3ccc(F)cc3)c(-c3ncc[nH]3)c2cc1C1CC1)S(C)(=O)=O [Example 102, 4-{[5-cyclopropyl-2-(4-fluorophenyl)-3-(1H-imidazol-2-yl)-1-benzofuran-6-yl](methylsulfonyl)amino}-N,N-dimethylbutanamide]
EC50 [1]: 0.134 µM | EC50 [2]: 0.108 µM | IC50 [3]: 0.047 µM | EC50 [4]: 0.0097 µM | EC50 [5, 11]: 0.066 µM | EC50 [5, 12]: 0.01 µM | EC50 [5, 13]: 0.01 µM | C316Y/1a Fold Resistance [6]: 22 fold | IC50 [7]: 0.0077 µM | IC50 [8]: 0.168 µM | EC50 [9, 14]: 0.0241 µM | EC50 [9, 15]: 0.242 µM | EC50 [9, 16]: 0.0241 µM | EC50 [9, 17]: 0.0241 µM | EC50 [10]: 0.145 µM

CNC(=O)CCCN(c1cc2oc(-c3ccc(F)cc3)c(-c3ncc[nH]3)c2cc1C1CC1)S(C)(=O)=O [Example 107, 4-{[5-cyclopropyl-2-(4-fluorophenyl)-3-(1H-imidazol-2-yl)-1-benzofuran-6-yl](methylsulfonyl)amino}-N-methylbutanamide]
EC50 [1]: 0.141 µM | EC50 [2]: 0.135 µM | IC50 [3]: 0.028 µM | EC50 [4]: 0.0093 µM | EC50 [5, 11]: 0.066 µM | EC50 [5, 12]: 0.011 µM | EC50 [5, 13]: 0.011 µM | C316Y/1a Fold Resistance [6]: 22 fold | IC50 [7]: 0.0055 µM | IC50 [8]: 0.122 µM | EC50 [9, 14]: 0.0175 µM | EC50 [9, 15]: 0.082 µM | EC50 [9, 16]: 0.0175 µM | EC50 [9, 17]: 0.0175 µM | EC50 [10]: 0.129 µM

[2H]C([2H])(CCCCC)N(c1cc2oc(-c3ccc(F)cc3)c(-c3ncc[nH]3)c2cc1C1CC1)S(C)(=O)=O [Example 113, N-[5-cyclopropyl-2-(4-fluorophenyl)-3-(1H-imidazol-2-yl)-1-benzofuran-6-yl]-N-[(1,1-^2H2)hexyl]methanesulfonamide]
EC50 [1]: 0.279 µM | EC50 [2]: 0.209 µM | IC50 [3]: 0.016 µM | EC50 [4]: 0.041 µM | EC50 [5, 11]: 0.549 µM | EC50 [5, 12]: 0.028 µM | EC50 [5, 13]: 0.028 µM | C316Y/1a Fold Resistance [6]: 22 fold | IC50 [7]: 0.0065 µM | IC50 [8]: 0.14 µM | EC50 [9, 14]: 0.0599 µM | EC50 [9, 15]: 0.646 µM | EC50 [9, 16]: 0.0599 µM | EC50 [9, 17]: 0.0599 µM | EC50 [10]: 0.144 µM
